The values that follow come from ChEMBL document CHEMBL1136397, “5-Aryl thiazolidine-2,4-diones as selective PPARgamma agonists” (Bioorg Med Chem Lett, 2003).

Series [1] is described as follows: In vivo triglyceride correction was determined in male db/db mice after administration at 10 mg/kg. It is filed as functional, Mus musculus.
Series [2] has as its target T1, Peroxisome proliferator-activated receptor gamma (Homo sapiens, UniProt P37231).
T1 sequence (P37231 whole entry): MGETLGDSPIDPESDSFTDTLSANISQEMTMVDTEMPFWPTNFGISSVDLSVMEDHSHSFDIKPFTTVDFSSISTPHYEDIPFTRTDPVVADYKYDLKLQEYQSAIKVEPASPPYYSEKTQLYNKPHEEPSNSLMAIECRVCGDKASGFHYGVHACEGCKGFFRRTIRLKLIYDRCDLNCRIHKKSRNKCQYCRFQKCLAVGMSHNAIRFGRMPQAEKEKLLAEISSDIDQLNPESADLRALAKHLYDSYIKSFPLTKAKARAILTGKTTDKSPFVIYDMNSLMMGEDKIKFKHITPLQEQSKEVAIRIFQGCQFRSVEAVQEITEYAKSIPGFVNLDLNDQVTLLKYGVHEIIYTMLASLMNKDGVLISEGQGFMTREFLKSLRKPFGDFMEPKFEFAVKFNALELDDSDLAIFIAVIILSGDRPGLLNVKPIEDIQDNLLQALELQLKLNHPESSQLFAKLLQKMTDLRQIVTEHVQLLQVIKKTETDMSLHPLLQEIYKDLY
Description: In vitro binding affinity against human PPAR gamma (peroxisome proliferator-activated gamma receptor)

The target in series [3] is T2, Peroxisome proliferator-activated receptor delta (Homo sapiens, UniProt Q03181).
T2 sequence (Q03181 whole entry): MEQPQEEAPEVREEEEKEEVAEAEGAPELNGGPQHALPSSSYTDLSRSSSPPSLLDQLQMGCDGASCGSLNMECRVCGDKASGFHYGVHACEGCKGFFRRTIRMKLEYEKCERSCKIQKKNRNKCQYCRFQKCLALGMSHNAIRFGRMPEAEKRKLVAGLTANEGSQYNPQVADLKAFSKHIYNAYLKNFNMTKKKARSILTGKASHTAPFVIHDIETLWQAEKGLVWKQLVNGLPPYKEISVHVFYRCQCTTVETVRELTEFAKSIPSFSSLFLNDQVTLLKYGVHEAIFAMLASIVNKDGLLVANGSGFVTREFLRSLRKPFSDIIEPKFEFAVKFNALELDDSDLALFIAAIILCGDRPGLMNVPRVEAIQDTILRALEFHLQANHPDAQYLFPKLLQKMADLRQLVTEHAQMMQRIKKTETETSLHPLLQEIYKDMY
Description: In vitro binding affinity against human PPAR delta (peroxisome proliferator-activated delta receptor)

Series [4] concerns Mus musculus. Description: In vivo glucose correction was determined in male db/db mice after administration at 5 mg/kg. It is filed as functional.
Series [5] concerns Rattus norvegicus. The experiment in a line: Dose-normalized AUC was determined in rat after peroral administration (2 mg/kg). To be noted: in vivo, po. It is filed as ADME, organism-based.
Series [6] has as its target T3, Peroxisome proliferator-activated receptor alpha (Homo sapiens, UniProt Q07869).
T3 sequence (Q07869 whole entry): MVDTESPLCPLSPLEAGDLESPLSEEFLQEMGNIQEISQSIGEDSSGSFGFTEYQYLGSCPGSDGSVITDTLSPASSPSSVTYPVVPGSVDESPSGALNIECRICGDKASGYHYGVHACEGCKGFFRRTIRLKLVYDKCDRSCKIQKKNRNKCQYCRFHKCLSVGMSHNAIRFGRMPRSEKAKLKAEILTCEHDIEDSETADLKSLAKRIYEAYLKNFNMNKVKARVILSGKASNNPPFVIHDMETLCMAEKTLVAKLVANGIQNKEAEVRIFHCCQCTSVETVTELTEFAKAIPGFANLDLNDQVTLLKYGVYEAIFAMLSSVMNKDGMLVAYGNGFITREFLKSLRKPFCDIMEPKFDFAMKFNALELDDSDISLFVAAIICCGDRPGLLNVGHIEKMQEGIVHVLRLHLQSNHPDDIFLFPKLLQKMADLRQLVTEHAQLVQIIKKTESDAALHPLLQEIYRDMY
The experiment in a line: In vitro binding affinity against human PPAR alpha (peroxisome proliferator-activated alpha receptor).

The target in series [7] is T1, Peroxisome proliferator-activated receptor gamma. This is another data set of the same source.
Description: In vitro agonist activity tested for transactivation in human PPAR gamma-Gal4 chimeric COS-1 cells
Series [8] is described as follows: Half-life was determined in rat after intravenous administration (0.5 mg/kg). It is filed as ADME, organism-based. To be noted: in vivo.
Series [9] has as its target T3, Peroxisome proliferator-activated receptor alpha. Description: In vitro agonist activity tested for transactivation in human PPAR alpha-Gal4 chimeric COS-1 cells. The format is functional, cell-based.
The subject of series [10] is Rattus norvegicus. The experiment in a line: Plasma clearance was determined in rat after intravenous administration (0.5 mg/kg). It is filed as functional, organism-based.
Series [11] in a line: In vivo glucose correction was determined in male db/db mice after administration at 10 mg/kg. It is filed as functional, Mus musculus.
A short description of series [12]: Oral bioavailability in rat (dose 2 mg/kg). To be noted: in vivo. It is filed as ADME, organism-based.
Series [13] concerns Mus musculus. The experiment in a line: In vivo triglyceride correction was determined in male db/db mice after administration at 5 mg/kg. It is filed as functional.
Series [14] addresses T2, Peroxisome proliferator-activated receptor delta. This is another data set of the same source.
Description: In vitro agonist activity tested for transactivation in human PPAR delta-GAL4 chimeric COS-1 cells

Broadly, the IC50 is the point on the concentration scale where inhibition reaches its midpoint. A higher IC50 goes with a need for much substance. By AUC is commonly meant concentration integrated over time. The term EC50 denotes the midpoint of the concentration-response curve. Low values mean greater potency, high ones weaker potency. The half-life is the time in which the quantity being followed falls by half. A low value points to fast loss. For orientation: bioavailability means dose-corrected exposure relative to a reference, in per cent. A higher bioavailability goes with good availability. Take `CCCc1cc(Oc2ccc(S(C)(=O)=O)cc2)ccc1OCCCOc1ccc(C2SC(=O)NC2=O)cc1` (centres undefined): the Triglyceride correction in series [1] stood at 78%; in the series with Mus musculus [13] it was 55%. In addition, the values for the IC50 in series [2], in series [3] and in [6] were 250 nM, greater than 50000 nM and greater than 50000 nM, respectively. The values for the Glucose correction (with Mus musculus [4]; in series [11]) were 62% and 86%, respectively. This molecule registered an AUC in the series with Rattus norvegicus [5] of 11.8 µM·h. In addition, the EC50 was 120 nM in series [7], greater than 3000 nM in series [9] and greater than 3000 nM in [14]. In series [8], the half-life was 2.8 h. The molecule also came in with a CL (mL.min-1.kg-1) with Rattus norvegicus [10] of 2.1. The bioavailability in series [12] turned out to be 84%.
